From patent US20040086901A1, “Database for analyzing gene function and method of analyzing gene function by dspa” (priority 2000, published 2004)

Legend:
Type in all cases: cell-based, mouse
[1] = system: NIH3T3 cells overexpressing Cip-1; assay: MTT cell viability, Cip-1 overexpressing cells vs parental line; details: Cip-1 high-expressing cells / parental cell line, 3 to 4 days
Method: (§1) With regard to the function-known genes, the genes shown in the left column of Table 2 were used. With regard to the drugs, those shown in Table 1 were dissolved in DMSO to an extent of 100-fold of the maximum concentration for the search of the drugs and used. With regard to the cells, incubated NIH3T3 or ras-NIH3T3 cells were used.
(§2) Full-length cDNA of each function-known genes was incorporated into an expression vector (pRc-CMV, etc.) and transfected into NIH3T3 cells by a common method. Transformed cells were isolated using the resistance to G-418 as an index and the expression of the transfected gene in each cell was investigated by Western blotting method to select a highly expressing line.
(§3) Cell viabilities were measured according to the following procedures.
(§4) 1) From the 2nd to the 11th rows of a 96-well plate were filled with DMEM (50 μl). The 12th row was filled with 100 μl of DMEM.
(§5) 2) The 1st row was filled with 98 μl of DMEM.
(§6) 3) Drugs (2 μl each) were added into the 1st row.
(§7) 4) Continuous double-dilution was conducted from the 1st to the 9th rows. Fifty μl were taken out from the 9th row and discarded. The plate was preserved in a CO2 incubator.
(§8) 5) Cells (each high-expressing cells and the parental cell line) were detached from the medium using a trypsin solution, suspended in 10% CS-DMEM and transferred to a test tube and cell numbers (cell/ml) were counted.
(§9) 6) The cells were diluted to a concentration of 1×10^5 cells/ml, and 50 μl of the cell suspension were added to the 1st to the 11th rows of the plate followed by gently stirring.
(§10) 7) The plate was transferred to the CO2 incubator and incubated for 3 to 4 days.
(§11) 8) MTT (5 mg/ml in PBS) (10 μl) was added to the 1st to the 12th rows of the plate and incubated in the CO2 incubator at 37° C. for 4 hours.
(§12) 9) A reaction stop solution (0.04N HCl in isopropanol) (150 μl) was added followed by mixing well and being allowed to stand at room temperature for about 2 hours.
(§13) 10) Coloration of formazan which was a metabolite of the MTT dye was measured using a microplate reader. The measurement wavelength was 574 nm and the reference wavelength was 655 nm. The 10th and the 11th rows of the plate were 100% controls and the 12th row was a 0% control.
(§14) As an index for the sensitivity of highly gene-expressing cells and the parental cell line to various drugs, each of the IC40 values thereof was specified and ratios of the IC40 values were calculated. […] After that, logarithmic values of ratios of IC40 values were calculated from each gene.

[2] = system: NIH3T3 cells overexpressing T.Tn; assay: MTT cell viability, T.Tn overexpressing cells vs parental line; details: T.Tn high-expressing cells / parental cell line, 3 to 4 days
Method: as §1, §2, §3, §4, §5, §6, §7, §8, §9, §10, §11, §12, §13, §14

[3] = system: NIH3T3 cells overexpressing Gluco-corticoid-R; assay: MTT cell viability, Gluco-corticoid-R overexpressing cells vs parental line; details: Gluco-corticoid-R high-expressing cells / parental cell line, 3 to 4 days
Method: as §1, §2, §3, §4, §5, §6, §7, §8, §9, §10, §11, §12, §13, §14

[4] = system: NIH3T3 cells overexpressing ERK-DN; assay: MTT cell viability, ERK-DN overexpressing cells vs parental line; details: ERK-DN high-expressing cells / parental cell line, 3 to 4 days
Method: as §1, §2, §3, §4, §5, §6, §7, §8, §9, §10, §11, §12, §13, §14

[5] = system: NIH3T3 cells overexpressing RhoA-DN; assay: MTT cell viability, RhoA-DN overexpressing cells vs parental line; details: RhoA-DN high-expressing cells / parental cell line, 3 to 4 days
Method: as §1, §2, §3, §4, §5, §6, §7, §8, §9, §10, §11, §12, §13, §14

[6] = system: NIH3T3 cells overexpressing CaMKIIa-Active; assay: MTT cell viability, CaMKIIa-Active overexpressing cells vs parental line; details: CaMKIIa-Active high-expressing cells / parental cell line, 3 to 4 days
Method: as §1, §2, §3, §4, §5, §6, §7, §8, §9, §10, §11, §12, §13
As an index for the sensitivity of highly gene-expressing cells and the parental cell line to various drugs, each of the IC40 values thereof was specified and ratios of the IC40 values were calculated. FIG. 2 and FIG. 3 are the examples where ratios of IC40 values were calculated from a curve showing the dependency on the concentration of the chemical versus the viability. After that, logarithmic values of ratios of IC40 values were calculated from each gene.

ICE inhibitor-III [ICEin-3]
logarithmic value of ratio of IC40 values [1]: 0.08
logarithmic value of ratio of IC40 values [2]: 0.30
logarithmic value of ratio of IC40 values [3]: 0.00
logarithmic value of ratio of IC40 values [4]: 0.00
logarithmic value of ratio of IC40 values [5]: 0.00
logarithmic value of ratio of IC40 values [6]: 0.22

C=CC1=C(C)c2cc3[n-]c(cc4nc(cc5[n-]c(cc1n2)c(C)c5CCC(=O)O)C(CCC(=O)O)=C4C)c(C)c3C=C.[Cl-].[Cl-].[Sn+4] [SnPP]
logarithmic value of ratio of IC40 values [1]: −0.66
logarithmic value of ratio of IC40 values [2]: 0.00
logarithmic value of ratio of IC40 values [3]: 0.00
logarithmic value of ratio of IC40 values [4]: 0.00
logarithmic value of ratio of IC40 values [5]: 0.08
logarithmic value of ratio of IC40 values [6]: 0.30

O=CN/C=C/c1cc(O)ccc1O [Erbstatin, erbstatin]
logarithmic value of ratio of IC40 values [2]: 0.48
logarithmic value of ratio of IC40 values [3]: 0.06
logarithmic value of ratio of IC40 values [4]: 0.13
logarithmic value of ratio of IC40 values [5]: −0.02
logarithmic value of ratio of IC40 values [6]: 0.21

CN[C@@H]1C[C@H]2O[C@@](C)([C@@H]1OC)n1c3ccccc3c3c4c(c5c6ccccc6n2c5c31)C(=O)NC4 [Staurosporine]
logarithmic value of ratio of IC40 values [3]: −0.28
logarithmic value of ratio of IC40 values [5]: 0.14
logarithmic value of ratio of IC40 values [6]: −0.04

CN(C)CCCn1cc(C2=C(c3c[nH]c4ccccc34)C(=O)NC2=O)c2ccccc21 [GF109203X]
logarithmic value of ratio of IC40 values [1]: 0.30
logarithmic value of ratio of IC40 values [2]: −0.10
logarithmic value of ratio of IC40 values [3]: 0.27
logarithmic value of ratio of IC40 values [4]: 0.48

C[C@@H]1C[C@@H]([C@H](O)CC2CC(=O)NC(=O)C2)C(=O)[C@@H](C)C1 [CHX, cycloheximide]
logarithmic value of ratio of IC40 values [1]: 1.77
logarithmic value of ratio of IC40 values [2]: 0.00
logarithmic value of ratio of IC40 values [4]: 0.08
logarithmic value of ratio of IC40 values [5]: 0.22
logarithmic value of ratio of IC40 values [6]: −0.09

COC[C@H]1OC(=O)c2coc3c2[C@@]1(C)C1=C(C3=O)[C@@H]2CCC(=O)[C@@]2(C)C[C@H]1OC(C)=O [Wortmannin, wortmannin]
logarithmic value of ratio of IC40 values [2]: 0.36
logarithmic value of ratio of IC40 values [3]: 0.09
logarithmic value of ratio of IC40 values [4]: −0.11
logarithmic value of ratio of IC40 values [5]: 0.00
logarithmic value of ratio of IC40 values [6]: 0.18

C/C=C(/C)C(=O)O[C@H]1C(C)=C2[C@H]([C@@H]1OC(=O)CCCCCCC)[C@@](C)(OC(C)=O)C[C@H](OC(=O)CCC)[C@@]1(O)[C@H]2OC(=O)[C@@]1(C)O [Thapsigargin, thapsigargin]
logarithmic value of ratio of IC40 values [1]: 0.04
logarithmic value of ratio of IC40 values [2]: 0.32
logarithmic value of ratio of IC40 values [3]: 0.20
logarithmic value of ratio of IC40 values [4]: −0.15
logarithmic value of ratio of IC40 values [5]: 0.06
logarithmic value of ratio of IC40 values [6]: 0.03

C=C[C@@]1(C)CC(=O)[C@]2(O)[C@@]3(C)[C@@H](O)CCC(C)(C)[C@@H]3[C@H](O)[C@H](OC(C)=O)[C@@]2(C)O1 [Forskolin, forskolin]
logarithmic value of ratio of IC40 values [2]: 0.53
logarithmic value of ratio of IC40 values [3]: 0.33
logarithmic value of ratio of IC40 values [4]: 0.08
logarithmic value of ratio of IC40 values [5]: −0.36
logarithmic value of ratio of IC40 values [6]: 0.43

O=c1c(-c2ccc(O)cc2)coc2cc(O)cc(O)c12 [Genistein, genistein]
logarithmic value of ratio of IC40 values [2]: −0.25
logarithmic value of ratio of IC40 values [3]: 0.02
logarithmic value of ratio of IC40 values [4]: 0.00
logarithmic value of ratio of IC40 values [5]: 0.00
logarithmic value of ratio of IC40 values [6]: 0.23
